From patent US20250215039A1, “NUCLEOSIDES FOR TREATING CANCER” (PRIMEFOUR THERAPEUTICS, INC., priority 2022, published 2025)
Like-named read-outs stand apart in the source and are kept apart here.

System: cancer cell lines
Assay: Cancer cell proliferation activity (CellTiterGlo, 72 h)
Type: cell-based
Conditions: 72 h, 72 h, read-out: IC50
Procedure, shortened: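 Readout is CellTiterGlo luminescence after 72 h compound exposure (0.1% DMSO final), started one day post-seeding, at 37 °C.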

COC[C@]1(CO)O[C@@H](n2cnc3c(N)nc(F)nc32)C[C@@H]1O [Cpd. No. 140, (2S,3S,5R)-5-(6-amino-2-fluoro-9H-purin-9-yl)-2-(hydroxymethyl)-2-(methoxymethyl)tetrahydrofuran-3-ol]
IC50 (5637 cell line (bladder)): 660 nM
IC50 (AS49 cell line (lung)): 4060 nM
IC50 (CLS439 cell line (bladder)): 9830 nM
IC50 (HS729 cell line (muscle)): 860 nM
IC50 (JAR cell line (placenta)): 330 nM
IC50 (Homo sapiens, 22Rv1, 72 h, 22RV1 cell line (prostate)): 1240 nM
IC50 (Homo sapiens, 786-0, 72 h, 786O cell line (kidney)): 400 nM
IC50 (Homo sapiens, A204, 72 h, A204 cell line (muscle)): 270 nM
IC50 (Homo sapiens, A673, 72 h, A673 cell line (bone)): 1950 nM
IC50 (Homo sapiens, A2780, 72 h, A2780 cell line (ovary)): 770 nM
IC50 (Homo sapiens, A-375, 72 h, A375 cell line (skin)): 210 nM
IC50 (Homo sapiens, A-431, 72 h, A431 cell line (skin)): 290 nM
IC50 (Homo sapiens, ACHN, ACHN cell line (kidney)): 2850 nM
IC50 (Homo sapiens, ASPC1, 72 h, ASPC1 cell line (pancreas)): 230 nM
IC50 (Homo sapiens, BT-20, 72 h, BT20 cell line (breast)): 390 nM
IC50 (Homo sapiens, BXPC-3, 72 h, BXPC3 cell line (pancreas)): 3380 nM
IC50 (Homo sapiens, C-33-A, C33A cell line (cervical)): 650 nM
IC50 (Homo sapiens, CAKI-1, 72 h, CAKI1 cell line (kidney)): 30 nM
IC50 (Homo sapiens, COLO 205, 72 h, COLO205 cell line (colon)): 810 nM
IC50 (Homo sapiens, COLO-678, 72 h, COLO678 cell line (colon)): 4150 nM
IC50 (Homo sapiens, Ca-Ski, CASKI cell line (cervical)): 200 nM
IC50 (Homo sapiens, Caco-2, 72 h, CACO2 cell line (colon)): 660 nM
IC50 (Homo sapiens, Calu-6, 72 h, CALU6 cell line (lung)): 300 nM
IC50 (Homo sapiens, DLD-1, 72 h, DLD1 cell line (colon)): 2490 nM
IC50 (Homo sapiens, DU-145, 72 h, DU145 cell line (prostate)): 160 nM
IC50 (Homo sapiens, EFO-21, 72 h, EFO21 cell line (ovary)): 540 nM
IC50 (Homo sapiens, EJ-28, 72 h, EJ28 cell line (bladder)): 440 nM
IC50 (Homo sapiens, Granta-519, 72 h, GRANTA-519 cell line (hematological)): 3460 nM
IC50 (Homo sapiens, HCT-15, 72 h, HCT15 cell line (colon)): 2070 nM
IC50 (Homo sapiens, HCT-116, 72 h, HCT116 cell line (colon)): 620 nM
IC50 (Homo sapiens, HEK293, 72 h, HEK293 cell line (kidney)): 460 nM
IC50 (Homo sapiens, HL-60, 72 h, HL-60 cell line (hematological)): 670 nM
IC50 (Homo sapiens, HT-29, 72 h, HT29 cell line (colon)): 300 nM
IC50 (Homo sapiens, HT-1080, 72 h, HT1080 cell line (connective tissue)): > 50000 nM
IC50 (Homo sapiens, HeLa, HELA cell line (cervical)): 490 nM
IC50 (Homo sapiens, HepG2, 72 h, HEPG2 cell line (liver)): 450 nM
IC50 (Homo sapiens, Hs-578T, HS578T cell line, breast): 470 nM
IC50 (Homo sapiens, IGROV-1, 72 h, IGROV1 cell line (ovary)): 340 nM
IC50 (Homo sapiens, IMR-90, 72 h, IMR90 cell line, lung): 450 nM
IC50 (Homo sapiens, J82, 72 h, J82 cell line (bladder)): 380 nM
IC50 (Homo sapiens, JEG-3, 72 h, JEG3 cell line (placenta)): 380 nM
IC50 (Homo sapiens, JIMT-1, 72 h, JIMT1 cell line (breast)): 90 nM
IC50 (Homo sapiens, K562, 72 h, K-562 cell line (hematological)): 3950 nM
IC50 (Homo sapiens, Kasumi 1, 72 h, KASUMI-1 cell line (hematological)): 80 nM
IC50 (Homo sapiens, L-363, 72 h, L-363 cell line (hematological)): 420 nM
IC50 (Homo sapiens, LoVo, LOVO cell line (colon)): 190 nM
IC50 (Homo sapiens, MCF7, 72 h, MCF7 cell line (breast)): > 50000 nM
IC50 (Homo sapiens, MDA-MB-231, 72 h, MDAMB231 cell line (breast)): 7320 nM
IC50 (Homo sapiens, MDA-MB-435, 72 h, MDAMB435 cell line (skin)): 1690 nM
IC50 (Homo sapiens, MDA-MB-436, 72 h, MDAMB436 cell line (breast)): 250 nM
IC50 (Homo sapiens, MDA-MB-468, 72 h, MDAMB468 cell line (breast)): 240 nM
IC50 (Homo sapiens, MG-63, 72 h, MG63 cell line (bone)): > 50000 nM
IC50 (Homo sapiens, MHH-ES-1, 72 h, MHHES1 cell line (bone)): 500 nM
IC50 (Homo sapiens, MIA PaCa-2, 72 h, MIAPACA2 cell line (pancreas)): > 50000 nM
IC50 (Homo sapiens, MINO, MINO cell line (hematological)): 180 nM
IC50 (Homo sapiens, MV4-11, 72 h, MV4-11 cell line (hematological)): 160 nM
IC50 (Homo sapiens, NCI-H23, 72 h, NCI-H23 cell line (lung)): 640 nM
IC50 (Homo sapiens, NCI-H82, 72 h, NCIH82 cell line (lung)): 490 nM
IC50 (Homo sapiens, NCI-H292, 72 h, NCIH292 cell line (lung)): 2970 nM
IC50 (Homo sapiens, NCI-H460, 72 h, NCIH460 cell line (lung)): 600 nM
IC50 (Homo sapiens, OVCAR-3, 72 h, OVCAR3 cell line (ovary)): 180 nM
IC50 (Homo sapiens, OVCAR-4, 72 h, OVCAR4 cell line (ovary)): 600 nM
IC50 (Homo sapiens, PANC-1, 72 h, PANC1 cell line (pancreas)): > 50000 nM
IC50 (Homo sapiens, PC-3, 72 h, PC3 cell line (prostate)): 660 nM
IC50 (Homo sapiens, PLC-PRF-5, 72 h, PLCPRF5 cell line (liver)): 4950 nM
IC50 (Homo sapiens, Panc1005, 72 h, PANC1005 cell line (pancreas)): 370 nM
IC50 (Homo sapiens, RD, RD cell line (muscle)): 870 nM
IC50 (Homo sapiens, Ramos, RAMOS cell line (hematological)): 600 nM
IC50 (Homo sapiens, SAOS-2, 72 h, SAOS2 cell line (bone)): 360 nM
IC50 (Homo sapiens, SF-268, 72 h, SF268 cell line (brain)): > 50000 nM
IC50 (Homo sapiens, SF-295, 72 h, SF295 cell line (brain)): 1730 nM
IC50 (Homo sapiens, SK-BR-3, 72 h, SKBR3 cell line (breast)): 70 nM
IC50 (Homo sapiens, SK-HEP1, 72 h, SKHEP1 cell line (liver)): 3410 nM
IC50 (Homo sapiens, SK-LMS-1, 72 h, SKLMS1 cell line (uterus)): 340 nM
IC50 (Homo sapiens, SK-MEL-5, 72 h, SKMEL5 cell line, skin): 4010 nM
IC50 (Homo sapiens, SK-MEL-28, 72 h, SKMEL28 cell line (skin)): 670 nM
IC50 (Homo sapiens, SK-N-AS, SKNAS cell line (brain)): 630 nM
IC50 (Homo sapiens, SK-N-SH, SKNSH cell line (brain)): 320 nM
IC50 (Homo sapiens, SK-OV-3, 72 h, SKOV3 cell line (ovary)): 620 nM
IC50 (Homo sapiens, SNB-75, 72 h, SNB75 cell line (brain)): 1510 nM
IC50 (Homo sapiens, SU-DHL10, 72 h, SU-DHL-10 cell line (hematological)): 530 nM
IC50 (Homo sapiens, SU-DHL-6, 72 h, SU-DHL-6 cell line (hematological)): 360 nM
IC50 (Homo sapiens, SW-620, 72 h, SW620 cell line (colon)): 540 nM
IC50 (Homo sapiens, T-24, 72 h, T24 cell line (bladder)): 710 nM
IC50 (Homo sapiens, TE-671, 72 h, TE671 cell line (muscle)): 1920 nM
IC50 (Homo sapiens, THP-1, 72 h, THP-1 cell line (hematological)): > 50000 nM
IC50 (Homo sapiens, U2OS, U2OS cell line (bone)): 610 nM
IC50 (Homo sapiens, U-87 MG, U87MG cell line (brain)): 3660 nM
IC50 (Homo sapiens, UMUC3, 72 h, UMUC3 cell line (bladder)): 3400 nM
IC50 (Homo sapiens, UO-31, 72 h, UO31 cell line (kidney)): 280 nM
IC50 (Homo sapiens, WSU-NHL, WSU-NHL cell line (hematological)): 430 nM
IC50 (MT-3, 72 h, MT3 cell line (breast)): 360 nM
IC50 (NCI-H358M, NCIH358M cell line (lung)): 430 nM
IC50 (PBMC, PBMC (hematological)): > 50000 nM
IC50 (RD-ES, RDES cell line (bone)): 270 nM
